Columns and labels:
[1] = system: KY895; assay: Secondary screen: colony formation on acyclovir, AZT, TK selection and LB plates; assay type: cell-based, E. coli; parameters: key: ++: the same number of colonies were observed as compared to control plates; +: fewer (<20% those observed with pMCC) and generally smaller (˜50% smaller diameter) colonies were observed as compared to control plates; −: no colonies were observed; settings: for colonies on AZT plates: 1 μg/mL thymidine+0.05 μg/mL AZT; for colonies on AZT plates / colonies on ACV plates / colonies on TK selection plates, 37° C.: 37° C.; for colonies on ACV plates: 1 μg/mL thymidine+1 μg/mL acyclovir; for colonies on LB plates: LB+carb50 plates
Experimental: Mutant cultures were also spread onto duplicate TK selection and LB+carb50 plates. One set of TK selection plates and LB+carb50 plates were incubated at 42° C. All other plates were incubated at 37° C. After 16-24 hours the plates were scored.

[2] = Substrate specificity assay of cell-free translation products, thymidine; assay type: biochemical
From the text: (§1) No significant difference in phosphorylation efficiency was observed between pT7:MCC and pT7:HSVTKII when thymidine (1.3-fold), deoxycytidine (1.3-fold), GCV (0.8-fold), ACV (0.95-fold), or AZT (1.1-fold) were used as substrate. Furthermore, Sanderson et al. (J. Mol. Biol. 202:917-919, 1988) reported that the Km for thymidine and ATP and the Vmax of TK purified from E. coli harboring pHETK2 (the parent plasmid of pMCC) and HSV-1-infected cells were indistinguishable. Therefore, the alterations observed in the properties of the mutant TKs can be attributed to the nucleotide substitutions within the target region and that any differences between the vectors (pT7:MCC and pT7:HSVTKII) exerted only minor changes in catalytic properties.
(§2) Three of the mutants (P155A/F161V, F161I and F161C) were assayed in triplicate for the relative levels of phosphorylation using thymidine, deoxycytidine, ACV, GCV, or AZT as substrates. Briefly, forty-eight […] of each tritiated substrate was used in each assay reaction. Translation products were diluted for each nucleoside assay as follows (translation/H2O): 1/100, thymidine; 2/3, deoxycytidine, GCV, and AZT; 4/1, ACV. Each set of assays was incubated for 2 hours at 30° C. and the amount of phosphorylated product determined.

[3] = Substrate specificity assay of cell-free translation products, deoxycytidine; assay type: biochemical
From the text: as §1, §2

[4] = Time course analysis of mutant enzymes (thymidine phosphorylation); assay type: biochemical; settings: 30° C., 0-30 minutes; adjusted to protein synthesis
Experimental: For the high-activity mutant enzymes, unlabeled translation products were diluted 1/9 and incubated for 0, 5, 10, 20, or 30 minutes at 30° C.
The low-activity mutants were diluted 1/5, and the rate of phosphorylation as a function of time was also determined.

[5] = Substrate specificity assay of cell-free translation products, ACV; assay type: biochemical
From the text: as §1, §2

[6] = assay type: biochemical; settings: for thermal stability after 42° C. preincubation compared to HSVTKII: cell-free translation products
Experimental: To substantiate this observation, cell-free translation products were incubated at 42° C. for increasing times prior to being assayed for enzyme activity. Briefly, cell free translation (“CFT”) products of each high-activity mutant, -RNA, and HSVTKII samples were diluted 1/9 and incubated for 0, 5, 10, and 20 minutes at 42° C. The preincubated samples were then assayed for 5 minutes (P155A/F161V and F1611) or 20 minutes (-RNA, HSVTKII, F161C, and D162E). The percent of activity remaining was determined with the untreated samples set at 100%. […] Because F161C lost greater than 90% of enzyme activity within the first 20 minutes at 42° C., shorter incubation periods at 42° C. were performed […].
Low-activity mutant CFT products were diluted 1/5 and incubated for 0, 20, 40, or 60 minutes at 42° C. The preincubated samples were then assayed in triplicate for the thymidine phosphorylation for 60 minutes. The percent of activity remaining was determined using the untreated (time 0) sample as 100%.

[7] = Kinetic analysis of fusion proteins, GMP; assay type: biochemical; settings: purified protein
[8] = system: BHK tk; assay: Sensitivity of guanylate kinase transfectant pools to ACV in TK expressing clones; assay type: cell-based, hamster; settings: guanylate kinase expression in the presence of wild-type TK
Experimental: pREP8-7, pREP8-7:hgmk and pREP8-7:mgmk are used to transfect BHK tk, TK-transfected clone C3 and 75-transfected clone D4. Histidinol is used to select pools of stable transfectants and to isolate individual clones.
As in Example 8, pools of transfectants are placed in 96 well microtiter dishes at 1000 cells/well. Eight replicates are incubated for three days in the presence of various GCV or ACV concentrations.

Substance	colonies on AZT plates [1]	colonies on ACV plates [1]	colonies on TK selection plates, 37° C. [1]	colonies on TK selection plates, 42° C. [1]	colonies on LB plates [1]	phosphorylation of thymidine relative to HSVTKII [2] [fold]	phosphorylation of deoxycytidine over the wild-type enzyme [3] [fold]	TK activity in time course analysis compared to wild-type [4]	ACV phosphorylation over HSVTKII [5] [fold]	activity loss after 5 minutes at 42° C. ([6]; cell-free translation product) [%]	enzyme activity lost within the first 20 minutes at 42° C. ([6]; cell-free translation product)	Km [7] [µM]	increased sensitivity to ACV relative to TK expression alone [8]	thermal stability after 42° C. preincubation compared to HSVTKII [6]
F161I	+ (fewer (<20% those observed with pMCC) and generally smaller (˜50% smaller diameter) colonies were observed as compared to control plates)	+ (fewer (<20% those observed with pMCC) and generally smaller (˜50% smaller diameter) colonies were observed as compared to control plates)	++	++	++	2.2	1.9	statistically higher affinity for thymidine than the wild-type TK						
D162E								no difference in activities when compared to the wild-type TK enzyme activities						
P155A/F161V: HSV-1 TK, proline to alanine mutation at position 155 and phenylalanine to valine at position 161	+ (fewer (<20% those observed with pMCC) and generally smaller (˜50% smaller diameter) colonies were observed as compared to control plates)	++	++	++	++	2.6	2.8	statistically higher affinity for thymidine than the wild-type TK	2.4					
F161C	−	+ (fewer (<20% those observed with pMCC) and generally smaller (˜50% smaller diameter) colonies were observed as compared to control plates)	++	++	++		2.8	no difference in activities when compared to the wild-type TK enzyme activities	2	~85	greater than 90%			
gmk: wild-type guanylate kinase (murine gmk used in the fusions)												25		
Guanylate kinase: guanylate kinase expressed from pREP8-7 constructs in wild-type TK clone C3 (human or murine not stated)													approximately 2 fold	
F161L	++	++	++	−	++			moderate ability to phosphorylate thymidine, albeit at a much reduced rate from HSVTKII						more thermolabile that HSVTKII
F161I/R163H	++	++	++	+ (fewer (<20% those observed with pMCC) and generally smaller (˜50% smaller diameter) colonies were observed as compared to control plates)	++									equivalent to HSVTKII
